Assay results published in patent US11807625B2, “Capsid inhibitors for the prevention of HIV” (Gilead Sciences, Inc., priority 2019, dated 2023).
Like-named read-outs stand apart in the source and are kept apart here.

Assay: PK of compound of Formula (Ia) after single subcutaneous dose of solution formulations in Wistar Han rats
Assay type: in vivo
Conditions: male, Wistar Han, rat, plasma, sc, 50 mg/kg, mean ± SD
Protocol: Formulations containing the compound of Formula (Ia), or a pharmaceutically acceptable salt thereof, were prepared as solutions and optionally administered subcutaneously or intramuscularly to rats, rabbits, and/or dogs.
(§1) A solution of about 400 mg/mL of the compound of Formula (Ia) having 19.14 w/w % water, 40.66 w/w % PEG 300, 35.20 w/w % of a sodium salt of a compound of Formula (Ia), and 5.00% ethanol was prepared. The solution was administered subcutaneously to male Wistar Han rats at a dose level of about 50 mg/kg and dose volume of 0.125 mL/kg and the pharmacokinetic (PK) profile was determined.
as §1, with “500” for “400”, “16.64” for “19.14”, “35.36” for “40.66”, “43.00” for “35.20”, “0.1” for “0.125”
(§2) A solution of about 400 mg/mL of the compound of Formula (Ia) having 17.00 w/w % water, 36.40 w/w % PEG 300, 35.20 w/w % of a sodium salt of a compound of Formula (Ia), 5.00 w/w % ethanol, and 6.40 w/w % poloxamer 188 was prepared. The solution was administered subcutaneously to male beagle dogs at a dose level of about 12 mg/kg and male Wistar Han rats at a dose level of about 50 mg/kg. The pharmacokinetic profiles were determined, and the results for dogs are summarized in Table and Table, while the results for rats are summarized in Table and Table below.
as §2, with “500” for “400”, “14.06” for “17.00”, “30.12” for “36.40”
A solution of about 300 mg/mL of the compound of Formula (Ia) having 23.33 w/w % water, 48.99 w/w % PEG 300, 26.47 w/w % of a sodium salt of a compound of Formula (Ia), and 1.21 w/w % poloxamer 188 was prepared. The solution was administered subcutaneously to male beagle dogs at a dose level of about 6 mg/kg and male Wistar Han rats at a dose level of about 50 mg/kg. The pharmacokinetic profiles were determined, and the results for dogs are summarized in Table and Table, while the results for rats are summarized in Table and Table below.
as §2, with “18.80” for “17.00”, “40.25” for “36.40”, “34.38” for “35.20”, “1.57” for “6.40”
as §2, with “500” for “400”, “16.29” for “17.00”, “34.88” for “36.40”, “41.92” for “35.20”, “1.91” for “6.40”
A solution of about 400 mg/mL of the compound of Formula (Ia) having 20.90 w/w % water, 44.72 w/w % PEG 300, and 34.38 w/w % of a sodium salt of a compound of Formula (Ia) was prepared. […]

CC(C)(C#Cc1ccc(-c2ccc(Cl)c3c(NS(C)(=O)=O)nn(CC(F)(F)F)c23)c([C@H](Cc2cc(F)cc(F)c2)NC(=O)Cn2nc(C(F)(F)F)c3c2C(F)(F)[C@@H]2C[C@H]32)n1)S(C)(=O)=O [compound of Formula (Ia)]
AUC(0-t) (male Wistar Han rats, single SC 50 mg/kg, 400 mg/mL solution Y (water, PEG 300), n = 4, read-out: AUC0-336 h): 31.6 ± 10.9 µM·h | AUC(0-t) (male Wistar Han rats, single SC 50 mg/kg, 400 mg/mL solution Y (water, PEG 300), n = 4, read-out: AUC0-672 h): 74.9 ± 33.7 µM·h | AUC(0-t) (male Wistar Han rats, single SC 50 mg/kg, 400 mg/mL solution Y (water, PEG 300), n = 4, read-out: AUC0-1008 h): 128 ± 64 µM·h | AUC(0-t) (male Wistar Han rats, single SC 50 mg/kg, 400 mg/mL solution Y (water, PEG 300), n = 4, read-out: AUC0-1344 h): 182 ± 100 µM·h | AUC(0-t) (male Wistar Han rats, single SC 50 mg/kg, 400 mg/mL solution Y (water, PEG 300), n = 4, read-out: AUC0-1680 h): 230 ± 132 µM·h | AUC(0-t) (male Wistar Han rats, single SC 50 mg/kg, 400 mg/mL solution Y (water, PEG 300), n = 4, read-out: AUC0-2352 h): 312 ± 181 µM·h | AUC(0-t) (male Wistar Han rats, single SC 50 mg/kg, 400 mg/mL solution Y (water, PEG 300), n = 4, read-out: AUC0-3024 h): 389 ± 229 µM·h | AUC(0-t) (male Wistar Han rats, single SC 50 mg/kg, 400 mg/mL solution Y (water, PEG 300), n = 4, read-out: AUC0-3696 h): 454 ± 255 µM·h | AUC(0-t) (male Wistar Han rats, single SC 50 mg/kg, 400 mg/mL solution Z (3.13% poloxamer 188), n = 4, read-out: AUC0-24 h): 2.37 ± 1.6 µM·h | AUC(0-t) (male Wistar Han rats, single SC 50 mg/kg, 400 mg/mL solution Z (3.13% poloxamer 188), n = 4, read-out: AUC0-168 h): 23.9 ± 12.4 µM·h | AUC(0-t) (male Wistar Han rats, single SC 50 mg/kg, 400 mg/mL solution Z (3.13% poloxamer 188), n = 4, read-out: AUC0-336 h): 49.4 ± 25.4 µM·h | AUC(0-t) (male Wistar Han rats, single SC 50 mg/kg, 400 mg/mL solution Z (3.13% poloxamer 188), n = 4, read-out: AUC0-672 h): 106 ± 49 µM·h | AUC(0-t) (male Wistar Han rats, single SC 50 mg/kg, 400 mg/mL solution Z (3.13% poloxamer 188), n = 4, read-out: AUC0-1008 h): 163 ± 68 µM·h | AUC(0-t) (male Wistar Han rats, single SC 50 mg/kg, 400 mg/mL solution Z (3.13% poloxamer 188), n = 4, read-out: AUC0-1344 h): 214 ± 85 µM·h | AUC(0-t) (male Wistar Han rats, single SC 50 mg/kg, 400 mg/mL solution Z (3.13% poloxamer 188), n = 4, read-out: AUC0-1680 h): 259 ± 99 µM·h | AUC(0-t) (male Wistar Han rats, single SC 50 mg/kg, 400 mg/mL solution Z (3.13% poloxamer 188), n = 4, read-out: AUC0-2352 h): 344 ± 117 µM·h | AUC(0-t) (male Wistar Han rats, single SC 50 mg/kg, 400 mg/mL solution Z (3.13% poloxamer 188), n = 4, read-out: AUC0-3024 h): 435 ± 129 µM·h | AUC(0-t) (male Wistar Han rats, single SC 50 mg/kg, 400 mg/mL solution Z (3.13% poloxamer 188), n = 4, read-out: AUC0-3696 h): 544 ± 156 µM·h | AUC(0-t) (male Wistar Han rats, single SC 50 mg/kg, 500 mg/mL solution X (5.00% ethanol, 1.91% poloxamer 188), n = 3, read-out: AUC0-24 h): 2.82 ± 0.53 µM·h | AUC(0-t) (male Wistar Han rats, single SC 50 mg/kg, 500 mg/mL solution X (5.00% ethanol, 1.91% poloxamer 188), n = 3, read-out: AUC0-168 h): 30.1 ± 5.1 µM·h | AUC(0-t) (male Wistar Han rats, single SC 50 mg/kg, 500 mg/mL solution X (5.00% ethanol, 1.91% poloxamer 188), n = 3, read-out: AUC0-336 h): 64.5 ± 11.4 µM·h | AUC(0-t) (male Wistar Han rats, single SC 50 mg/kg, 500 mg/mL solution X (5.00% ethanol, 1.91% poloxamer 188), n = 3, read-out: AUC0-672 h): 152 ± 23 µM·h | AUC(0-t) (male Wistar Han rats, single SC 50 mg/kg, 500 mg/mL solution X (5.00% ethanol, 1.91% poloxamer 188), n = 3, read-out: AUC0-1008 h): 244 ± 29 µM·h | AUC(0-t) (male Wistar Han rats, single SC 50 mg/kg, 500 mg/mL solution X (5.00% ethanol, 1.91% poloxamer 188), n = 3, read-out: AUC0-1344 h): 329 ± 35 µM·h | AUC(0-t) (male Wistar Han rats, single SC 50 mg/kg, 500 mg/mL solution X (5.00% ethanol, 1.91% poloxamer 188), n = 3, read-out: AUC0-1680 h): 416 ± 47 µM·h | AUC(0-t) (male Wistar Han rats, single SC 50 mg/kg, 500 mg/mL solution X (5.00% ethanol, 1.91% poloxamer 188), n = 3, read-out: AUC0-2352 h): 549 ± 64 µM·h | AUC(0-t) (male Wistar Han rats, single SC 50 mg/kg, 500 mg/mL solution X (5.00% ethanol, 1.91% poloxamer 188), n = 3, read-out: AUC0-3024 h): 659 ± 80 µM·h | AUC(0-t) (male Wistar Han rats, single SC 50 mg/kg, 500 mg/mL solution X (5.00% ethanol, 1.91% poloxamer 188), n = 3, read-out: AUC0-3696 h): 761 ± 84 µM·h | AUC(0-t) (male Wistar Han rats, single SC 50 mg/kg, 500 mg/mL solution X (5.00% ethanol, 1.91% poloxamer 188), n = 3, read-out: AUC0-4704 h): 806 ± 83 µM·h | Cmax (n = 3 rats, SC 50 mg/kg, solution R, 400 mg/mL): 0.37 ± 0.065 µM | AUC(0-t) (n = 3 rats, SC 50 mg/kg, solution R, 400 mg/mL, read-out: AUC0-24h): 3.02 ± 0.65 µM·h | AUC(0-t) (n = 3 rats, SC 50 mg/kg, solution R, 400 mg/mL, read-out: AUC0-168h): 25.2 ± 5.3 µM·h | AUC(0-t) (n = 3 rats, SC 50 mg/kg, solution R, 400 mg/mL, read-out: AUC0-336h): 60.6 ± 8.3 µM·h | AUC(0-t) (n = 3 rats, SC 50 mg/kg, solution R, 400 mg/mL, read-out: AUC0-672h): 170 ± 5.4 µM·h | AUC(0-t) (n = 3 rats, SC 50 mg/kg, solution R, 400 mg/mL, read-out: AUC0-1008h): 287 ± 32 µM·h
